Experimental data as given in patent US10928397B2, “Methods involving MenaINV in screening for inhibitors of cancer invasion and metastasis” (MASSACHUSETTS INSTITUTE OF TECHNOLOGY, priority 2012, dated 2021).
Entries after “also recorded” stand apart in the source; their conditions may differ.

Columns and labels:
[1] = test system: cells expressing MenaINV; assay: Membrane protrusion after 1 nM EGF with increasing doses of Erlotinib; format: cell-based
Method: FIG. 6A-6D: Cells expressing MenaINV are resistant to EGFR targeted kinase inhibitors. [A] […] Data was combined to generate novel hypothesis regarding clinically-relevant treatment regimes for invasive breast cancer. […]. Membrane protrusion was quantified 8 min post-EGF/drug addition. *p<0.05, **p<0.01, ***p<0.001. […]. Cells were serum starved and then stimulated with EGF and drug for 3 min. Cells were lysed and the level of EGFR-pY1173 was determined by semi-quantitative Western Blot.
. To test this hypothesis, serum-starved cells were treated with 1.0 nM EGF and increasing doses of DMSO (carrier control) or Erlotinib and measured EGFR phosphorylation at 3 min post-stimulation (FIG. 6B). […]. […] Further, electron microscopy was performed using ultra-small gold particles to examine receptor distribution along the cell membrane to determine if increased clustering of the receptor might affect drug binding or signal propagation. However, no significant difference was found in receptor clustering in the analysis (FIG. 7).

[2] = test system: mammary carcinoma cells; assay: In vivo invasion of mammary carcinoma cells under Erlotinib
[3] = test system: MDA-MB231 cells; assay: EGF-stimulated lamellipodial (membrane) protrusion in MDA-MB231 cells; format: cell-based; settings: for lamellipodial protrusion 8 min post-stimulation: 0.5 nM EGF
Method: (§1) FIG. 2A-2G. Inhibition of PTP1b phenocopies expression of Mena^INV. (A) MDA-MB231 cells were serum starved for 4 h with addition of 10 μM PTP1b inhibitor (EMD Calbiochem) for the time indicated. Cells were then stimulated with 0.5 nM EGF and lamellipodial protrusion was measured 8 min post-stimulation. […] (G) Inhibition of PTP1b in vivo shifts the sensitivity of GFP-Control MTLn3 xenografted cells to 5 nM (a 5× increase in sensitivity). *p<0.05 and **p<0.01 by ANOVA and Tukey post-test.
FIG. 8A-8D: The activity of SHIP2 is not required for early stages of Mena^INV-induced lamellipodial protrusion. MDA-MB231 (A,B) and MTLn3 (C,D) cells were incubated for 4 h with 10 μM AS1949490 in serum-free medium. Cells were stimulated with 0.25 nM (A,B) or 0.5 nM (C,D) EGF and membrane protrusion was recorded 8 min. […]
In contrast, inhibition of PTP1b increased lamellipodial protrusion in MDA-MB231-GFP control cells in a time dependent manner in response to 0.5 nM EGF.

[4] = test system: MTLn3 cells; assay: EGF-stimulated lamellipodial (membrane) protrusion in MTLn3 cells; format: cell-based
Method: as §1
FIG. 8A-8D: The activity of SHIP2 is not required for early stages of Mena^INV-induced lamellipodial protrusion. MDA-MB231 (A,B) and MTLn3 (C,D) cells were incubated for 4 h with 10 μM AS1949490 in serum-free medium. Cells were stimulated with 0.25 nM (A,B) or 0.5 nM (C,D) EGF and membrane protrusion was recorded 8 min.
What could account for the phenotypes associated with inclusion of the INV exon of Mena, that include: increased activation of EGFR and downstream EGFR-mediated, motility-specific signaling pathways, increased cell invasion, and decreased efficacy of tyrosine kinase inhibition? One route to aberrant signal amplification is dysregulation of control nodes within the protein network, such as phosphatases, that could lead to prolonged or amplified phosphorylation states. Identification of potential Mena and Mena^INV interacting partners that might affect phosphatase activity can shed light on this. Attempts were made at identification of Mena isoforms-specific interacting partners via mass spectrometric analysis. Several unsuccessful attempts to purify Mena interacting partners through a co-immunprecipitation and the mass spectrometric approach resulted. A bioinformatics screening approach was then used. A list of 38 human phosphatases was queried for potential Ena/VASP interaction motifs, with the hypothesis that an interaction between Mena^INV and a phosphatase important for attenuating growth factor responses could lead to increased signaling upon growth factor stimulation. […]

[5] = test system: EGFR Y1173 phosphorylation in MDA-MB231 cells; assay: EGFR Y1173 phosphorylation on PTP1b inhibition, semi-quantitative Western blotting; format: cell-based; settings: 0.25 nM EGF, 10 μM, 30 min preincubation
Method: (§2) FIG. 9A-9C: PTP1b inhibition increases EGFR pathway activation. MDA-MB231 cells expressing GFP-control or GFPMena^INV were serum starved for 4 h and stimulated with 0.25 nM EGF in the presence or absence of 10 μM PTP1b (30 min preincubation). Phosphorylation of EGFR on Y1173 was measured using semi-quantitative Western blotting (A, B) of quadruplicate lysates. […] MTLn3 cells were transiently transfected with a mCherry-tagged PHdomain biosensor targeting PI(4,5)P2, starved in L15 media, pre-incubated with 10 μM PTP1bi and then stimulated with 0.5 nM EGF.

[6] = test system: MDA-MB231 cells; assay: In vitro invasion into collagen I gels; format: cell-based; settings: 0.25 or 0.5 nM EGF
[7] = test system: xenograft tumors of MTLn3 cells; assay: In vivo invasion assay (needle collection from xenograft tumors); set-up: species or system mouse
Method: An in vivo invasion assay was employed to determine the effect of decreased PTP1b activity on tumor cell chemotaxis. To mimic the in vitro invasion experiments, 50 μM PTP1b inhibitor was added to needles with 10% matrigel and varying concentrations of EGF, the needles inserted into xenograft tumors of MTLn3 cells expressing either GFP or GFP-Mena^INV and cells allowed to crawl into the needle during a 4 h period. Similar to the results obtained in vitro, addition of PTP1b inhibitor to needles used to collect cells had no effect on the number of cells ectopically expressing Mena^INV collected (FIG. 2G). However, PTP1b inhibition increased the sensitivity of control cells 5-fold, decreasing the concentration of EGF required for chemotaxis into the needles from 25 nM to 5 nM. In this assay the discrepancy between expression of Mena^INV and inhibition of PTP1b may be due to the time lag required for inhibitor efficacy.
However, viability of the mouse under anesthesia precludes collection of cells for longer periods than 4 h, therefore this effect is difficult to quantify.

[8] = test system: MTLn3 cells; assay: PI(4,5)P2 hydrolysis, mCherry-tagged PH-domain biosensor (PLCγ activity); format: cell-based; settings: GFP-control MTLn3, 10 μM pre-incubation, 0.5 nM EGF, 3 min post-EGF, versus DMSO
Method: as §2

[9] = test system: MET; assay: HGF-stimulated protrusion assay with MET inhibitor; format: cell-based; settings: +5 ng/ml HGF
Method: FIG. 11: Cell protrusion assays were performed in which starved carcinoma cells expressing GFP, GFP-Mena or GFP-Mena^INV were stimulated with different concentrations of hepatocyte growth factor (HGF) (analogously as done with EGF stimulation of EGFR) followed by a measurement of cell protrusion several minutes later. The HGF concentrations (x-axis) are nM and the Y-axis is increase in cell size (a reflection of protrusion) compared to unstimulated cells.

[10] = test system: MET; assay: MET kinase activity in cells with MET inhibitor; format: cell-based

## C#Cc1cccc(Nc2ncnc3cc(OCCOC)c(OCCOC)cc23)c1 [Erlotinib]
[1]; 1 nM EGF, 8 min post-EGF/drug addition
  drug required to decrease lamellipodial protrusion, Mena^INV cells compared to control GFP or Mena cells: ten-fold more Erlotinib was required; also recorded: Significantly higher doses of Erlotinib (Tarceva) are required
[1]; across cell lines (FIG. 6D)
  efficacy after normalizing protrusion to the no-drug response of each cell line: roughly equivalent; also recorded: a common response across cell lines
[2]; GFP-expressing mammary carcinoma cells
  in vivo invasion: abrogates in vivo invasion
[2]; cells that express Mena^INV
  in vivo invasion: does not fully block invasion

## C[C@H](NC(=O)c1sccc1OCc1ccc(Cl)cc1)c1ccccc1 [AS1949490]
[3]; MDA-MB231-GFP-Mena^INV, 10 μM for 4 h, 0.25 nM EGF
  membrane protrusion at 8 min post-EGF stimulation: reduced the protrusion response; also recorded: decreased membrane protrusion to GFPcontrol levels
[3]; MDA-MB231-GFP-Mena^INV, 10 μM, 0.25 nM EGF, up to 3 min post-stimulation
  initial protrusion response (kinetics): still demonstrated the fast initial protrusion response
[4]; MTLn3-GFP-Mena^INV, 10 μM for 4 h, 0.5 nM EGF
  membrane protrusion at 8 min post-EGF stimulation: reduced the protrusion response; also recorded: decreased membrane protrusion to GFPcontrol levels
[4]; MTLn3-GFP-Mena^INV, 10 μM, 0.5 nM EGF, up to 3 min post-stimulation
  initial protrusion response (kinetics): still demonstrated the fast initial protrusion response

## CCc1oc2cc(S(=O)(=O)Nc3ccc(S(=O)(=O)Nc4nccs4)cc3)ccc2c1C(=O)c1cc(Br)c(O)c(Br)c1 [PTP1b inhibitor]
[3]; GFP-control cells, 10 μM, 30 min pre-incubation
  lamellipodial protrusion 8 min post-stimulation: complete phenocopy of Mena^INV-dependent responses; also recorded: significant increase in membrane protrusion
[3]; MDA-MB231-GFP control cells, 30 min pre-incubation
  kinetics of protrusion: increased the kinetics of protrusion
[3]; MDA-MB231-GFP-Mena and GFP control cells, 0.25 nM EGF
  membrane protrusion: increased membrane protrusion; also recorded: protrusion was increased
[3]; MDA-MB231-GFP-Mena^INV cells
  kinetics of protrusion: without affecting the dynamics
[3]; MDA-MB231-GFP-Mena^INV cells, 0.25 nM EGF
  membrane protrusion: no further increase was measured
[3]; cells expressing Mena^INV, 0.125 nM EGF (data not shown)
  membrane protrusion: does not increase membrane protrusion
[3]; cells expressing Mena^INV, 10 μM, 30 min pre-incubation
  lamellipodial protrusion 8 min post-stimulation: had no effect
[4]; unmodified MTLn3 cells, EGF (0.5 nM, 5 nM elsewhere in the source)
  membrane protrusion (magnitude and kinetics): increased the magnitude and kinetics of membrane protrusion; also recorded: significantly enhanced
[5]; GFP control cells
  EGFR Y1173 phosphorylation: increases EGFR phosphorylation on Y1173; also recorded: increased EGFR Y1173 phosphorylation
[5]; GFP control cells, listed as PTP1bi
  EGFR Y1173 phosphorylation: increased EGFR Y1173 phosphorylation
[5]; cells expressing Mena^INV
  EGFR Y1173 phosphorylation: no additional affect
[6]; MDA-MB231-GFP and -GFP-Mena
  invasion into collagen I gels: increased
[6]; cells expressing Mena^INV
  invasion into collagen I gels: no significant effect
[7]; GFP-control MTLn3 xenograft, 50 μM inhibitor in needles, 4 h
  increase in sensitivity of control cells to EGF in vivo: 5 fold
[7]; GFP-control MTLn3 xenograft, 50 μM inhibitor, 25 nM without inhibitor
  concentration of EGF required for chemotaxis into the needles with inhibitor: 5 nM
[7]; MTLn3 cells ectopically expressing Mena^INV, 50 μM inhibitor
  number of cells collected into needles: had no effect
[8]
  PI(4,5)P2 hydrolysis (PLCγ activity): increased PI(4,5)P2 hydrolysis
[8]; listed as PTP1bi
  PI(4,5)P2 hydrolysis (PLCγ activity): PLCγ activity is greater

## Cc1[nH]c(/C=C2\C(=O)Nc3ccc(S(=O)(=O)N(C)c4cccc(Cl)c4)cc32)c(C)c1C(=O)N1CCN(C)CC1 [SU11274]
[9]
  response of Mena^INV expressing cells in protrusion assay: resistant
[10]
  response of Mena^INV expressing cells, MET kinase activity: resistant
